Laboratory results: the supplement of paper PMC10307832

Columns and labels:
Experiment in all cases: relative viability (nuclei count vs DMSO), 5 days (fraction); higher = more cells survive
[1] = compound: CC1(COc2ccc3c(c2)ncn3-c2ccc3cccc(N4CCC(N)CC4)c3n2)COC1 [Crenolanib] + CCNC(=O)c1noc(-c2cc(C(C)C)c(O)cc2O)c1-c1ccc(CN2CCOCC2)cc1 [Luminespib] (partner 0.01 µM)
Procedure, shortened: (§1)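 Relative viability was taken as the ratio of nuclei in treated wells to nuclei in vehicle wells. Lung cancer cell lines in 1536-well plates received compounds by pin tool one day after seeding, either one drug alone or a fixed anchor-drug dose plus five library-drug doses (not always all listed) in √10 steps. Nuclei were counted on 4× images after 5 days of treatment, and values are medians of duplicate plates.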

[2] = compound: O=C1NC(=O)[C@@H](c2cn3c4c(cccc24)CCC3)[C@@H]1c1c[nH]c2ccccc12 [Tivantinib] + N=C(N)NC(=N)NCCc1ccccc1 [Phenformin] (partner 250 µM)
Procedure, shortened: as §1

[3] = compound: O=C1NC(=O)[C@@H](c2cn3c4c(cccc24)CCC3)[C@@H]1c1c[nH]c2ccccc12 [Tivantinib] + CCNC(=O)c1noc(-c2cc(C(C)C)c(O)cc2O)c1-c1ccc(CN2CCOCC2)cc1 [Luminespib] (partner 0.01 µM)
Procedure, shortened: as §1

[4] = compound: CC1(COc2ccc3c(c2)ncn3-c2ccc3cccc(N4CCC(N)CC4)c3n2)COC1 [Crenolanib] + N=C(N)NC(=N)NCCc1ccccc1 [Phenformin] (partner 250 µM)
Procedure, shortened: as §1

For UMC-11, the relative viability ([1]; first compound 0.01 µM) was 1.06, the relative viability ([1]; first compound 0.03162 µM) was 1.02 and the relative viability ([1]; first compound 0.1 µM) was 1.02. It also gave a relative viability ([1]; first compound 0.3162 µM) of 1.11, a relative viability ([1]; first compound 1 µM) of 1.07 and a relative viability ([2]; first compound 0.01 µM) of 0.331. It also gave a relative viability ([2]; first compound 0.03162 µM) of 0.338, a relative viability ([2]; first compound 0.1 µM) of 0.289 and a relative viability ([2]; first compound 0.3162 µM) of 0.371. It also gave a relative viability ([3]; first compound 0.01 µM) of 0.927, a relative viability ([3]; first compound 0.03162 µM) of 1.02 and a relative viability ([3]; first compound 0.1 µM) of 0.928. For the same cell line, the relative viability ([3]; first compound 0.3162 µM) was 1.13, the relative viability ([4]; first compound 0.01 µM) was 0.346 and the relative viability ([4]; first compound 0.03162 µM) was 0.323. It also gave a relative viability ([4]; first compound 0.1 µM) of 0.325, a relative viability ([4]; first compound 0.3162 µM) of 0.329 and a relative viability ([4]; first compound 1 µM) of 0.269.
